Results: US20080188473A1, “Indoles Useful in the Treatment of Inflammation” (priority 2004, published 2008)

Target: T1, human mPGES-1 (Homo sapiens, UniProt O14684)
T1 construct: made in house; host or cells: E. coli (membrane fraction)
T1 sequence (O14684 1-152): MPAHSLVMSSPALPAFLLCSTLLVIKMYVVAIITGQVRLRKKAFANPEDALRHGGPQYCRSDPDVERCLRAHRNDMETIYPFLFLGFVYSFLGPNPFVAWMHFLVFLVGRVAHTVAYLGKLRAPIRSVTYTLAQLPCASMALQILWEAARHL
Assay: mPGES-1 inhibition assay (conversion of PGH2 to PGE2, HPLC analysis)
Type: biochemical
Details: human mPGES-1 expressed in E. coli, membrane fraction; 25 min preincubation with inhibitor, PGH2 substrate 60 seconds, room temperature; read-out: concentration at which 50% inhibition of mPGES-1 was observed
Description: In the assay human mPGES-1 catalyses the reaction where the substrate PGH2 is converted to PGE2. mPGES-1 is expressed in E. coli and the membrane fraction is dissolved in 20 mM NaPi-buffer pH 8.0 and stored at −80° C. […] The stop solution consists of H2O/MeCN (7/3), containing FeCl2 (25 mM) and HCl (0.15 M). The assay is performed at room temperature in 96-well plates.
The following is added chronologically to each well: • 1. 100 μL human in PGES-1 in KPi-buffer with glutathione. Total protein concentration: 0.02 mg/mL. • 2. 1 μL inhibitor in DMSO. Incubation of the plate at room temperature for 25 minutes. • 3. 4 μL of a 0.25 mM PGH2 solution. Incubation of the plate at room temperature for 60 seconds. • 4. 100 μL stop solution. • 180 μL per sample is analyzed with HPLC.

| Compound | IC50 [nM] |
| --- | --- |
| CC(=O)Nc1c(C(=O)O)n(-c2ccc(OC(C)C)cc2)c2ccc(-c3ccc(OC(C)C)cc3)cc12 [Example 1, 3-Acetamido-1,5-bis(4-isopropoxyphenyl)-indole-2-carboxylic acid] | 3100 |
| CC(=O)N(C)c1c(C(=O)O)n(-c2ccc(OC(C)C)cc2)c2ccc(-c3ccc(C(F)(F)F)cn3)cc12 [Example 12, 3-(Acetylmethylamino)-1-(4-isopropoxyphenyl)-5-(5-trifluoromethyl-pyridin-2-yl)-1H-indole-2-carboxylic acid] | 5300 |

Now those with a lower IC50, led by results:

| IC50 [nM] | Compound |
| --- | --- |
| 1700 | CC(C)Oc1ccc(-c2ccc3c(c2)c(NS(C)(=O)=O)c(C(=O)O)n3-c2ccc(OC(C)C)cc2)cc1 [Example 3, 1,5-Bis(4-isopropoxyphenyl)-3-(methylsulfonamido)indole-2-carboxylic acid] |
| 730 | CC(C)Oc1ccc(-n2c(C(=O)O)c(N3CCOCC3)c3cc(-c4ccc(C(F)(F)F)cc4)ccc32)cc1 [Example 7, 1-(4-Isopropoxyphenyl)-3-(4-morpholino)-5-(4-(trifluoromethyl)phenyl)-indole-2-carboxylic acid] |
| 190 | CC(C)Oc1ccc(-n2c(C(=O)O)c(NC(=O)c3cccnc3)c3cc(-c4ccc(C(F)(F)F)cn4)ccc32)cc1 [Example 13, 1-(4-Isopropoxyphenyl)-3-nicotinamide-5-(5-trifluoromethylpyridin-2-yl)-1H-indole-2-carboxylic acid] |
